The test deals with ET (Huh-lucubineo-ET) cell line harboring I389luc-ubi-neo/NS3-3′/ET HCV replicon. In words: Replicon assay (HCV replicon, luciferase readout). Type of test: cell-based. The following applies: Hepatitis C virus. On the procedure: A cell line, ET (Huh-lucubineo-ET) is used for screening of compounds for inhibiting HCV RNA dependent RNA polymerase. The ET cell line is stably transfected with RNA transcripts harboring a I389luc-ubi-neo/NS3-3′/ET; replicon with firefly luciferase-ubiquitin-neomycin phosphotransferase fusion protein and EMCV-IRES driven NS3-5B polyprotein containing the cell culture adaptive mutations (E1202G; T1280I; K1846T) (Krieger at al, 2001 and unpublished). The ET cells are grown in DMEM (Dulbeco's Modified Eagle's Medium), supplemented with 10% fetal calf serum, 2 mM Glutamine, Penicillin (100 IU/mL)/Streptomycin (100 μg/mL), 1× nonessential amino acids, and 250 μg/mL G418 (“Geneticin”). They are all available through Life Technologies (Bethesda, Md.). The cells are plated at 0.5−1.0×10^4 cells/well in the 96 well plates and incubated for 24 hrs before adding test compound. The compounds are added to the cells to achieve a final concentration of 0.1 nM to […] and a final DMSO (dimethylsulfoxide) concentration of 0.5%. Luciferase activity is measured 48-72 hours later by adding a lysis buffer and the substrate (Catalog number Glo-lysis buffer E2661 and Bright-Glo luciferase system E2620 Promega, Madison, Wis.). Cells should not be too confluent during the assay. Percent inhibition of replication data is plotted relative to no compound control. Under the same condition, cytotoxicity of the compounds are determined using cell proliferation reagent, WST-1 (Roche, Germany). The compounds showing antiviral activities, but no significant cytotoxicities are chosen to determine EC50 and TC50. For these determinations, a 10 point, 2-fold serial dilution for each compound was used, which spans a concentration range of 1000 fold. EC50 and similarly TC50 values were calculated by fitting % inhibition at each concentration to the following equation:
% inhibition=100%/[(EC50/[I])^b+1]
where b is Hill's coefficient.
(In antiviral work, replicon cells carry a viral genome segment that copies itself.)

For orientation: EC50 means the midpoint of the concentration-response curve. Low values mean an effect from little substance, high ones a need for much substance. As for `COC(=O)[C@H](CCCCNC(=O)OC(C)(C)C)NC(=O)Cc1cn2cc(-c3ccoc3)cc(C(F)(F)F)c2n1` (stereo in doubt) [Compound 153, 6-tert-Butoxycarbonylamino-2-[2-(6-furan-3-yl-8-trifluoromethyl-imidazo[1,2-a]pyridin-2-yl)-acetylamino]-hexanoic acid methyl ester], the EC50 came out at 13.9 µM.

`COC(=O)[C@@H](NC(=O)Cc1cn2cc(-c3ccoc3)cc(C(F)(F)F)c2n1)C(C)(C)C` (stereo in doubt) [Compound 294, 2-[2-(6-Furan-3-yl-8-trifluoromethyl-imidazo[1,2-a]pyridin-2-yl)-acetylamino]-3,3-dimethyl-butyric acid methyl ester] yielded an EC50 greater than 50 µM.

As to `NC(=O)[C@H](CO)NC(=O)Cc1cn2cc(-c3ccoc3)cc(C(F)(F)F)c2n1` (stereo in doubt) [Compound 298, 2-[2-(6-Furan-3-yl-8-trifluoromethyl-imidazo[1,2-a]pyridin-2-yl)-acetylamino]-3-hydroxy-propionamide], the EC50 is greater than 50 µM.

Take `O=C(N[C@@H]1CCN(C(=O)c2nc3c(C(F)(F)F)cc(-c4ccoc4)cn3c2Cl)C1)OCCCl` (stereo in doubt) [Compound 321, [1-(3-Chloro-6-furan-3-yl-8-trifluoromethyl-imidazo[1,2-a]pyridine-2-carbonyl)-pyrrolidin-3-yl]-carbamic acid 2-chloro-ethyl ester]: the EC50 was greater than 50 µM.

The molecule `O=C(O)c1nc2c(C(F)(F)F)cc(-c3ccoc3)cn2c1Cl` [Compound 101, 3-Chloro-6-furan-3-yl-8-trifluoromethyl-imidazo[1,2-a]pyridine-2-carboxylic acid] gave an EC50 of 7.01 µM.

`O=C(c1nc2c(C(F)(F)F)cc(-c3ccoc3)cn2c1Cl)N1CCC(c2ccccc2F)C(O)C1` (centres unmarked) [Compound 102, (3-Chloro-6-furan-3-yl-8-trifluoromethyl-imidazo[1,2-a]pyridin-2-yl)-[4-(2-fluoro-phenyl)-3-hydroxy-piperidin-1-yl]-methanone] returned an EC50 of 0.0469 µM.

The molecule `O=C(c1nc2c(C(F)(F)F)cc(-c3cn[nH]c3)cn2c1Cl)N1CC=C(c2ccccc2F)C1` [Compound 103, [3-Chloro-6-(1H-pyrazol-4-yl)-8-trifluoromethyl-imidazo[1,2-a]pyridin-2-yl]-[3-(2-fluoro-phenyl)-2,5-dihydro-pyrrol-1-yl]-methanone] came in with an EC50 of 0.0389 µM.

`O=C(c1nc2c(C(F)(F)F)cc(-c3cn[nH]c3)cn2c1Cl)N1CC=C(c2c[nH]cn2)C1` [Compound 104, [3-Chloro-6-(1H-pyrazol-4-yl)-8-trifluoromethyl-imidazo[1,2-a]pyridin-2-yl]-[3-(1H-imidazol-4-yl)-2,5-dihydro-pyrrol-1-yl]-methanone] yielded an EC50 of 5.96 µM.

In the case of `O=C(c1nc2c(C(F)(F)F)cc(-c3cn[nH]c3)cn2c1Cl)N1CC=C(c2cncs2)C1` [Compound 105, [3-Chloro-6-(1H-pyrazol-4-yl)-8-trifluoromethyl-imidazo [1,2-a]pyridin-2-yl]-(3-thiazol-5-yl-2,5-dihydro-pyrrol-1-yl)-methanone], the EC50 was 0.13 µM.

On to `O=C(c1nc2c(C(F)(F)F)cc(-c3ccoc3)cn2c1Cl)N1CC=C(c2cncs2)C1` [Compound 106, (3-Chloro-6-furan-3-yl-8-trifluoromethyl-imidazo[1,2-a]pyridin-2-yl)-(3-thiazol-5-yl-2,5-dihydro-pyrrol-1-yl)-methanone], for which the EC50 amounted to 0.0886 µM.

Take `O=C(c1nc2c(C(F)(F)F)cc(-c3cn[nH]c3)cn2c1Cl)N1CC=C(c2cnsc2)C1` [Compound 107, [3-Chloro-6-(1H-pyrazol-4-yl)-8-trifluoromethyl-imidazo [1,2-a]pyridin-2-yl]-(3-isothiazol-4-yl-2,5-dihydro-pyrrol-1-yl)-methanone]: the EC50 was 0.241 µM.

The molecule `CS(=O)(=O)N1CCN(C(=O)c2nc3c(C(F)(F)F)cc(-c4ccoc4)cn3c2Cl)CC1` [Compound 108, (3-Chloro-6-furan-3-yl-8-trifluoromethyl-imidazo[1,2-a]pyridin-2-yl)-(4-methanesulfonyl-piperazin-1-yl)-methanone] had a concentration giving a half-maximal response (EC50) of 24.1 µM.

For `O=C(Cc1cn2cc(-c3ccoc3)cc(C(F)(F)F)c2n1)N1CCN(c2nccs2)CC1` [Compound 109, 2-(6-Furan-3-yl-8-trifluoromethyl-imidazo[1,2-a]pyridin-2-yl)-1-(4-thiazol-2-yl-piperazin-1-yl)-ethanone], the half-maximal effective concentration (EC50) was greater than 50 µM.

Take `O=C(Cc1cn2cc(-c3ccoc3)cc(C(F)(F)F)c2n1)N1CCCCC1c1ccccc1` (centres unmarked) [Compound 110, 2-(6-Furan-3-yl-8-trifluoromethyl-imidazo[1,2-a]pyridin-2-yl)-1-(2-phenyl-piperidin-1-yl)-ethanone]: the midpoint of the response, the EC50, lay at 49 µM.

In turn, `O=C(c1nc2c(C(F)(F)F)cc(-c3ccoc3)cn2c1Cl)N1CC=C(c2ncc[nH]2)CC1` [Compound 111, (3-Chloro-6-furan-3-yl-8-trifluoromethyl-imidazo[1,2-a]pyridin-2-yl)-[4-(1H-imidazol-2-yl)-3,6-dihydro-2H-pyridin-1-yl]-methanone] displayed an EC50 greater than 50 µM.

Regarding `O=C(c1nc2c(C(F)(F)F)cc(-c3cn[nH]c3)cn2c1Cl)N1CC=C(c2cn[nH]c2)CC1` [Compound 112, [3-Chloro-6-(1H-pyrazol-4-yl)-8-trifluoromethyl-imidazo[1,2-a]pyridin-2-yl]-[4-(1H-pyrazol-4-yl)-3,6-dihydro-2H-pyridin-1-yl]-methanone], the EC50 was determined as 0.368 µM.

Take `O=C(Cc1cn2cc(-c3ccoc3)cc(C(F)(F)F)c2n1)N1Cc2ccccc2C1` [Compound 113, 1-(1,3-Dihydro-isoindol-2-yl)-2-(6-furan-3-yl-8-trifluoromethyl-imidazo[1,2-a]pyridin-2-yl)-ethanone]: a half-maximal response (EC50) required 8.63 µM.

For `O=C(c1nc2c(C(F)(F)F)cc(-c3ccoc3)cn2c1Cl)N1CCC(N2CCCCC2=O)CC1` [Compound 114, 1′-(3-Chloro-6-furan-3-yl-8-trifluoromethyl-imidazo[1,2-a]pyridine-2-carbonyl)-[1,4′]bipiperidinyl-2-one], a half-maximal response (EC50) required 1.33 µM.

Consider `CCOc1cccnc1C1=CCN(C(=O)c2nc3c(C(F)(F)F)cc(-c4ccoc4)cn3c2Cl)CC1` [Compound 115, (3-Chloro-6-furan-3-yl-8-trifluoromethyl-imidazo[1,2-a]pyridin-2-yl)-(3-ethoxy-3′,6′-dihydro-2′H-[2,4′]bipyridinyl-1′-yl)-methanone], for which the EC50 stood at 22.5 µM.

Regarding `O=C(c1cc2c(C(F)(F)F)cc(-c3cccs3)nc2[nH]1)N1CC=C(c2ncccc2F)CC1` [Compound 116, (3-Fluoro-3′,6′-dihydro-2′H-[2,4′]bipyridinyl-1′-yl)-(6-thiophen-2-yl-4-trifluoromethyl-1H-pyrrolo[2,3-b]pyridin-2-yl)-methanone], the EC50 was found to be 24.4 µM.

On to `O=C(c1cc2nc(-c3cccs3)cc(C(F)(F)F)c2[nH]1)N1CC=C(c2ncccc2F)CC1` [Compound 117, (3-Fluoro-3′,6′-dihydro-2′H-[2,4′]bipyridinyl-1′-yl)-(5-thiophen-2-yl-7-trifluoromethyl-1H-pyrrolo[3,2-b]pyridin-2-yl)-methanone], for which the EC50 worked out at 23.9 µM.

For the molecule `O=C(c1nc2c(C(F)(F)F)cc(-c3nccs3)cn2c1Cl)N1CC=C(c2ncccc2F)CC1` [Compound 118, (3 -Chloro-6-thiazol-2-yl-8-trifluoromethyl-imidazo[1,2-a]pyridin-2-yl)-(3-fluoro-3′,6′-dihydro-2′H-[2,4′]bipyridinyl-1′-yl)-methanone], the half-maximal effective concentration (EC50) is 0.655 µM.

In turn, `O=C(c1nc2c(C(F)(F)F)cc(-c3cncs3)cn2c1Cl)N1CC=C(c2ncccc2F)CC1` [Compound 119, (3-Chloro-6-thiazol-5-yl-8-trifluoromethyl-imidazo[1,2-a]pyridin-2-yl)-(3-fluoro-3′,6′-dihydro-2′H-[2,4′]bipyridinyl-1′-yl)-methanone] came in with an EC50 of 0.354 µM.

`O=C(c1nc2c(C(F)(F)F)cc(-c3cscn3)cn2c1Cl)N1CC=C(c2ncccc2F)CC1` [Compound 120, (3-Chloro-6-thiazol-4-yl-8-trifluoromethyl-imidazo[1,2-a]pyridin-2-yl)-(3-fluoro-3′,6′-dihydro-2′H-[2,4′]bipyridinyl-1′-yl)-methanone] had an EC50 of 3.04 µM.

The molecule `O=C(c1nc2c(C(F)(F)F)cc(C3=CCNC3)cn2c1Cl)N1CC=C(c2ncccc2F)CC1` [Compound 121, [3-Chloro-6-(2,5-dihydro-1H-pyrrol-3-yl)-8-trifluoromethyl-imidazo[1,2-a]pyridin-2-yl]-(3-fluoro-3′,6′-dihydro-2′H-[2,4′]bipyridinyl-1′-yl)-methanone] had an EC50 of 2.54 µM.

In the case of `O=C(c1nc2c(C(F)(F)F)cc(-c3c[nH]cn3)cn2c1Cl)N1CC=C(c2ncccc2F)CC1` [Compound 122, [3-Chloro-6-(1H-imidazol-4-yl)-8-trifluoromethyl-imidazo[1,2-a]pyridin-2-yl]-(3-fluoro-3′,6′-dihydro-2′H-[2,4′]bipyridinyl-1′-yl)-methanone], the EC50 is 5.89 µM.

Values taken from patent US20100204265A1 (priority 2009, published 2010).
